Experimental findings from patent US20090030086A1, “ANTIMICROBIAL AGENTS” (priority 2005, published 2009) are described below.

The subject of experiment [1] is S. pyogenes ATCC 12344. Description: MBC assay. In kind it is cell-based, Streptococcus pyogenes. As for the experimental part: The S. pyogenes strain was cultured and maintained on Mueller-Hinton agar with 5% v/v defibrinated horse blood, and grown in Mueller-Hinton broth supplemented with 5% lysed horse blood (lysed horse blood was prepared as described in the NCCLS M7-A6 Vol. 23 No. 2); cultures were incubated aerobically at 37° C. for 24 hours.
(§1) This assay, normally carried out after an MIC assay, determines the minimum concentration of a compound that is lethal to the micro-organism being tested.
(§2) These samples were then individually sub-cultured on non-selective agar medium, under the incubation conditions described above. Following incubation they were examined visually for bacterial growth.
(§3) The activity of TBHQ against three other bacterial strains was investigated using MIC, MBC and DDA assays as described above. For the DDA assays, 200 μg of TBHQ was loaded onto each disc, using ethanol as the solvent.

In experiment [2] the test system is P. acnes PRP-046. The experiment in a line: Disc diffusion assay (DDA). In kind it is cell-based, Propionibacterium acnes. To be noted: resistance None, 200 μg per disc. Here is the method:
(§4) The Propionibacterium spp organisms were cultured and maintained on Wilkins-Chalgren Anaerobe Medium (agar and broth) at pH 6.0; cultures were incubated anaerobically at 37° C. for 72 hours.
(§5) A sterile paper disc was impregnated with a sample of the test compound and a minimum of 30 minutes allowed for the solvents to evaporate as far as possible. The disc was then placed on an agar plate onto which the test micro-organism had been inoculated. The plate was then incubated under the conditions described above, following which it was examined visually for signs of bacterial growth. If the test compound had antimicrobial activity, a circular zone of no growth would be obtained around the disc. The diameter of this zone of “inhibition” was measured using a ProtoCOL™ automated zone sizer (Synbiosis, Cambridge, UK). In general, a greater diameter and/or area of the zone of inhibition indicates a greater antimicrobial activity in the relevant test compound, although other factors such as test compound mobility through the agar gel may also influence the result.
(§6) The area of the zone of inhibition was calculated from the measured zone diameter (D) using the formula π(D/2)^2.
(§7) For the DDA assays, 200 μg of TBHQ was loaded onto each disc. The solvent used for the TBHQ was ethanol.
In general terms: Agar diffusion results depend on both activity and mobility in agar.

Experiment [3] concerns P. acnes PRP-017. The experiment in a line: Disc diffusion assay (DDA). To be noted: resistance MLS, 200 μg per disc. In kind it is cell-based, Propionibacterium acnes. Here is the method: as §4, §5, §6, §7
Experiment [4] relates to P. acnes PRP-023. The experiment in a line: Disc diffusion assay (DDA). In kind it is cell-based, Propionibacterium acnes. To be noted: resistance MLSK, 200 μg per disc. As for the experimental part:
as §4, §5, §6, §7

Experiment [5] has as its system P. acnes PRP-102. Description: Disc diffusion assay (DDA). In kind it is cell-based, Propionibacterium acnes. To be noted: resistance Tet/MLS, 200 μg per disc. As for the experimental part: as §4, §5, §6, §7
Experiment [6] relates to P. acnes PRP-002. Description: Disc diffusion assay (DDA). To be noted: resistance Tet/MLS, 200 μg per disc. In kind it is cell-based, Propionibacterium acnes. As for the experimental part:
as §4, §5, §6, §7

In experiment [7] the test system is P. acnes PRP-004. Description: Disc diffusion assay (DDA). In kind it is cell-based, Propionibacterium acnes. The conditions noted are these: resistance Tet, 200 μg per disc. As for the experimental part:
as §4, §5, §6, §7

Experiment [8] deals with P. acnes PRP-008. The experiment in a line: Disc diffusion assay (DDA). To be noted: resistance Clin, 200 μg per disc. In kind it is cell-based, Propionibacterium acnes. Here is the method: as §4, §5, §6, §7
Experiment [9] deals with P. acnes PRP-059. Description: Disc diffusion assay (DDA). In kind it is cell-based, Propionibacterium acnes. The conditions noted are these: resistance MLS, 200 μg per disc. As for the experimental part: as §4, §5, §6, §7
Experiment [10] relates to P. acnes PRP-003. Description: Disc diffusion assay (DDA). In kind it is cell-based, Propionibacterium acnes. The conditions noted are these: resistance Tet, 200 μg per disc. Here is the method: as §4, §5, §6, §7
The test system of experiment [11] is P. acnes PRP-068. The experiment in a line: Disc diffusion assay (DDA). In kind it is cell-based, Propionibacterium acnes. To be noted: resistance Ery, 200 μg per disc. As for the experimental part:
as §4, §5, §6, §7

For experiment [12], the system named is P. acnes PRP-101. The experiment in a line: Disc diffusion assay (DDA). In kind it is cell-based, Propionibacterium acnes. The conditions noted are these: resistance Tet/MLS, 200 μg per disc. As for the experimental part:
as §4, §5, §6, §7

The test system of experiment [13] is P. acnes PPR-007. Description: Disc diffusion assay (DDA). In kind it is cell-based, Propionibacterium acnes. To be noted: resistance Clin, 200 μg per disc. As for the experimental part: as §4, §5, §6, §7
Experiment [14] relates to P. acnes PRP-026. Description: Disc diffusion assay (DDA). In kind it is cell-based, Propionibacterium acnes. The conditions noted are these: resistance MLS, 200 μg per disc. As for the experimental part: as §4, §5, §6, §7
The test system of experiment [15] is P. acnes PRP-053. The experiment in a line: Disc diffusion assay (DDA). In kind it is cell-based, Propionibacterium acnes. To be noted: resistance Tet/MLS, 200 μg per disc. Here is the method:
as §4, §5, §6, §7

For experiment [16], the system named is P. acnes NCTC 737. The experiment in a line: MBC assay. In kind it is cell-based, Propionibacterium acnes. An outline of the steps: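 Cultures were kept on Wilkins-Chalgren Anaerobe agar and broth (pH 6.0), anaerobic, 37 °C, 72 h. The MBC, read as the minimum lethal concentration, came from sub-culturing post-MIC samples onto non-selective agar under those conditions and visually scoring growth.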

Experiment [17] deals with S. aureus ATCC 29213. The experiment in a line: MBC assay. In kind it is cell-based, Staphylococcus aureus. An outline of the steps: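 Organism grown aerobically on Mueller-Hinton agar/broth (pH 7.2) for 24 hours at 37° C. After the MIC step, samples plated on non-selective agar under those conditions; lowest concentration with no visible growth taken as the MBC.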
For experiment [18], the system named is E. faecalis ATCC 29212. Description: MBC assay. In kind it is cell-based, Enterococcus faecalis. As for the experimental part: The staphylococci and enterococci were cultured and maintained on Mueller-Hinton Medium (agar and broth) at pH 7.2; they were incubated aerobically at 37° C. for 24 hours.
as §1, §2, §3

Experiment [19] relates to P. acnes PRP-010. Description: Disc diffusion assay (DDA). To be noted: resistance MLSK, 200 μg per disc. In kind it is cell-based, Propionibacterium acnes. As for the experimental part:
Other propionibacterial strains were also tested, as described in Example 4 below. These included certain antibiotic resistant propionibacteria, such as the two P. acnes strains designated PRP-010 and PRP-039 which are resistant respectively to macrolides-lincosamides-streptogramins-ketolides (MLSK) and to macrolides-lincosamides-streptogramins (MLS) and tetracycline—in other words, PRP-010 is resistant to erythromycin and clindamycin, and PRP-039 to erythromycin, clindamycin and tetracycline.
as §4
A sterile paper disc was impregnated with a sample of the test compound and a minimum of 30 minutes allowed for the solvents to evaporate as far as possible. The disc was then placed on an agar plate onto which the test micro-organism had been inoculated. The plate was then incubated under the conditions described above, following which it was examined visually for signs of bacterial growth. […] The diameter of this zone of “inhibition” was measured using a ProtoCOL™ automated zone sizer (Synbiosis, Cambridge, UK). […]
The area of the zone of inhibition was calculated from the measured zone diameter (D) using the formula π(D/2)^2. […]

Molecules are shown by their SMILES. ≈ marks a conversion by molar mass, not a printed value.

The MBC is the smallest concentration meeting the test's criterion for killing. Low readings indicate greater bactericidal potency, high ones weaker bactericidal potency. As for `CC(C)(C)c1cc(O)ccc1O` [TBHQ, 2-t-butyl hydroquinone], the MIC/MBC ratio in experiment [1] stood at 1; in experiment [16] (P. acnes NCTC 737) it was 0.5; in experiment [17], 1; in experiment [18] it was 0.5. Moreover, the MBC in experiment [1] (Streptococcus pyogenes, ATCC12344) is 62.5 to 125 µg/mL (≈ 376 to 752 µM); in experiment [16] (P. acnes NCTC 737 (Table 6), resistance None) it was 15.6 µg/mL (≈ 93.9 µM). For the same compound, the DDA in experiment [2] amounted to 17.46 mm; in experiment [3], 18.40 mm; in experiment [4], 23.90 mm; in experiment [5], 23.80 mm; in experiment [6] it was 28.42 mm; in [7] it was 30.32 mm. For the same compound, the DDA is 14.47 mm in experiment [8]; 17.56 mm in [9]; 38.01 mm in [10]; 20.89 mm in experiment [11]; 0.0 mm in experiment [12]; 13.43 mm in experiment [13]. Besides, the DDA in experiment [14] turned out to be 8.18 mm; in experiment [15], 23.49 mm; in experiment [19] it was 18.71 mm.
